From patent US20260235624A1, “PEPTIDES AND THEIR LABELLED DERIVATIVES SUITABLE FOR USE IN THE DIAGNOSIS OF DIABETES OR ITS COMPLICATIONS” (Instytut Medycyny Doswiadczalnej i Klinicznej im. Miroslawa …, priority 2023, published 2026)

Assays:
[1] = test system: ADAM17; assay: Hydrolysis of the ADAM17 substrate in urine samples, increase in fluorescence; format: biochemical, human; conditions: control urine samples Z1-Z10 (healthy subjects); 20 μL of 45 μM substrate, buffer pH 9.0, 37° C., 30 minutes, triplicate
Description: (§1) 20 μL of a 45 μM substrate solution of the peptide of the invention or its labelled derivative were mixed with 100 μL of the measurement buffer (25 mM Tris-Cl, 2.5 μM ZnCl2 and 0.005% Brij-35, pH 9.0) and 80 μL of test urine from a patient diagnosed with diabetes or a healthy person (control).
(§2) When fluorescently labelled derivatives were used, measurements were carried out in triplicate in a 96-well plate using a CLARIOStar plate reader (BMG Labtech, Ortenberg, Germany) at 37° C. for 30 minutes. After this time, the measurement was finished and the increase in fluorescence was determined. If a fluorescence increase of more than 0.0001 U/sec was obtained, the urine sample tested was considered to originate from a person with diabetes.

[2] = test system: ADAM10; assay: Hydrolysis of the ADAM10 substrate in urine samples, increase in fluorescence; format: biochemical, human; conditions: control urine samples Z1-Z10 (healthy subjects); 20 μL of 45 μM substrate, buffer pH 9.0, 37° C., 30 minutes, triplicate
Description: as §1, §2

Substance | Increase in concentration of labelled degradation products in the urine sample, Mean [1] | Increase in concentration of labelled degradation products in the urine sample, Mean [2]
ABZ-Asn-Tyr-Met-Ala-Leu-Arg-Arg-Tyr(3-NO2)—NH2 | 0.000000 | 
ABZ-Lys-Ile-Ile-Asn-Leu-Lys-Arg-Tyr(3-NO2)—NH2 |  | 0.000000
